Where two headings read alike, the source gives them in different places.
Experiments:
[1] = system: hypothermic effect caused by reserpine; experiment: reserpine antagonism (reversal of the hypothermic effect caused by reserpine) in mice; format: in vivo; conditions: Mus musculus, oral, reserpine 2 mg/kg i.p. 17 hours before
Procedure: The test used for determining antidepressant properties was reserpine antagonism, namely the reversal of the hypothermic effect caused by reserpine. This test was carried out on mice, using five animals per dose. 17 hours after the intraperitoneal administration of 2 mg/kg of reserpine, the peripheral body temperature was measured at an ambient temperature of 19° C. Then, the test compound was administered by the oral route, and the body temperature was measured after 1, 3, 5 and 7 hours had elapsed. A median effective dose (ED50) was determined for each period of measurement. This is the dose at which the body temperature of the animals treated with reserpine is brought closer to the normal temperature of the untreated control animals by 50%.

[2] = LD50 in the mouse by oral route; conditions: in vivo
[3] = 1 hour, read-out: Reserpine antagonism, median effective dose (ED50) after 1 hr
[4] = 3 hours, read-out: Reserpine antagonism, median effective dose (ED50) after 3 hrs
[5] = 5 hours, read-out: Reserpine antagonism, median effective dose (ED50) after 5 hrs
[6] = 7 hours, read-out: Reserpine antagonism, median effective dose (ED50) after 7 hrs

| Compound | ED50 [1, 3] [mg/kg] | ED50 [1, 4] [mg/kg] | ED50 [1, 5] [mg/kg] | ED50 [1, 6] [mg/kg] | LD50 [2] [mg/kg] |
| --- | --- | --- | --- | --- | --- |
| Cc1ccc(C2CN(C)Cc3sc(CO)cc32)cc1 (stereo not drawn) [2-(Hydroxy-methyl)-6-methyl-4-p-tolyl-4,5,6,7-tetrahydrothieno[2,3-c]pyridine] | 2.5 | 0.24 | 2.5 | > 10 | ~740 |
| CN1Cc2sc(CN3CCOCC3)cc2C(c2ccc(Br)cc2)C1 (stereo not drawn) [2-(Morpholino-methyl)-4-(p-bromo-phenyl)-6-methyl-4,5,6,7-tetrahydro-thieno[2,3-c]pyridine] | 22 | 1.7 | 1.7 | 10 | > 640 |
| CN1Cc2sc(CN3CCOCC3)cc2C(c2ccc(Cl)cc2)C1 (stereo not drawn) [2-(Morpholino-methyl)-4-(p-chloro-phenyl)-6-methyl-4,5,6,7-tetrahydro-thieno[2,3-c]pyridine] | > 40 | 2.6 | 12 | 2.5 | > 640 |
